According to US20210369710A1, “MODULATORS OF MYC FAMILY PROTO-ONCOGENE PROTEIN” (Nalo Therapeutics, priority 2019, published 2021):

Columns and labels:
MycC Protein = molecular target: T1, MycC Protein (Homo sapiens, UniProt P01106); experiment: Degradation of MycC protein, Western blot band density in cells; assay type: cell-based; details: HL-60 or SKNBE2 cells; 6 uL of compound (1 mM) added to 3 mL cells; 6 hours; Western blot band density (ImageJ)
T1 construct: endogenous in cells; host or cells: HL-60 or SKNBE2
Description: (§1) In a T150 flask was plated either 2×10^6 of HL-60 (human leukemia cell line) or SKNBE2 (neuroblastoma cell line) cells in a total of 30 mL containing Roswell Park Memorial Institute (RPMI) 1640 Medium (Thermo Fisher, Cat. #11875-085), 10% Fetal Bovine Serum (FBS, Thermo Fisher: Cat. #10437-028), 1% Penicillin/streptomycin (Thermo Fisher: Cat. #10378016), and 1% Amophotericin B (Thermo Fisher, Cat. #15290026). The cells were split every 72 hours by reseeding the HL-60 or SKNBE2 cells, and the passage number was noted. It is noteworthy that cell cultures that were above 40 passages were not used, and most experiments were done with cells of less than 30 passages.
(§2) In a 6-well cell culture plate, a total of 3 mL of either 1×10^6 cells/mL of HL-60 or SKNBE2 cells were seeded, resulting in a total of 3×10^6 cells per well. To each well containing 3 mL of either HL-60 or SKNBE2 cell line was added 6 uL of MycN modulating compound (1 mM) and the resulting plate was shaken from left to right, and not swirled. After 6 hours, the cells were placed in a 15 mL falcon tube and spun at 500 Gs at 4° C. in a swinging bucket centrifuge. The medium was then carefully removed without disturbing the pellet. The pellet was then washed with 3 mLs of chilled phosphate buffered saline (PBS) and subjected to the spin cycle. PBS was then removed and the pellet was lysed in 200 uL of radioimmunoprecipitation (RIPA) lysis buffer (Thermo Fisher: Cat. #899000) that is supplemented with protease and phosphatase inhibitors (Thermo Fisher: Cat. #A32959). The cell lysate was then subjected to spinning in a centrifuge for 10 minutes at 13000G at 4° C. The supernatant was then carefully transferred to a fresh eppendorf tube without disturbing the pellet (˜180 uL). The protein concentration of the cell lysate was then determined by using a bicinchoninic acid (BCA assay) according to manufacturer's protocol (Thermo Fisher: Cat. #23227).
(§3) Cell lysate, approximately 25 ug-30 ug, was loaded per well in a 4-20% polyacrylamide gel (Biorad. Cat. #5671094). After running the dye front off of the gel, the gel was transferred to a nitrocellulose membrane (Biorad: Cat. #1704159) using the transblot turbo system (Biorad: Cat. #1704150) according to manufacturer's protocol. After transferring for 30 minutes, the membrane was blocked with 5% BSA for 1 hour at room temperature. The BSA was then washed off and the primary antibody of choice (1:500) was added, and the membrane was incubated with the primary antibody at 4° C. for overnight. The next morning, the primary antibody was removed and the membrane was washed with 1×-TBST for 10 minutes and repeated three more times. Following the last wash, a secondary antibody (Molecular Devices. Cat. #R8209 or R8208) was added at 1:5000 dilution and incubated for 1 hour at room temperature. Following the incubation with the secondary antibody, the membrane was washed with 1×-TBST for 10 minutes and repeated three more times. Following the last wash, the membrane was washed with de-ionized water twice and dried for at least two hours. Once the membrane is completely dry, the Molecular Devices Spectra Max western system was used to observe the bands. The western image was saved and the band density was measured with ImageJ software.

MycN Protein = molecular target: T2, MycN Protein (Homo sapiens, UniProt P04198); experiment: Degradation of MycN protein, Western blot band density in cells; assay type: cell-based; details: HL-60 or SKNBE2 cells; 6 uL of compound (1 mM) added to 3 mL cells; 6 hours; Western blot band density (ImageJ)
T2 construct: endogenous in cells; host or cells: HL-60 or SKNBE2
T2 sequence (P04198 1-464): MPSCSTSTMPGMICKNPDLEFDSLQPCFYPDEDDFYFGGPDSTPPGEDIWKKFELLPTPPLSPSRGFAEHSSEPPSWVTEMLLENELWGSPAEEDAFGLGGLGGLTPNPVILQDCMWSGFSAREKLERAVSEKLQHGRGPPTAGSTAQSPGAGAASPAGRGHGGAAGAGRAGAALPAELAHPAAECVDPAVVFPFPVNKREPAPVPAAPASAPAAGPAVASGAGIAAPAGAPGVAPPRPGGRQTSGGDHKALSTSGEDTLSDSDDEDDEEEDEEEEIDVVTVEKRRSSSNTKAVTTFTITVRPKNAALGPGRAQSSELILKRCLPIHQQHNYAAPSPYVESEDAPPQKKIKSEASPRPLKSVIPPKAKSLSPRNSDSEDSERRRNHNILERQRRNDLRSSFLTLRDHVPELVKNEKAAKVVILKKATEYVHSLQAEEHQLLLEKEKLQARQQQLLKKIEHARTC
Description: as §1, §2, §3

T1 sequence (P01106 whole entry): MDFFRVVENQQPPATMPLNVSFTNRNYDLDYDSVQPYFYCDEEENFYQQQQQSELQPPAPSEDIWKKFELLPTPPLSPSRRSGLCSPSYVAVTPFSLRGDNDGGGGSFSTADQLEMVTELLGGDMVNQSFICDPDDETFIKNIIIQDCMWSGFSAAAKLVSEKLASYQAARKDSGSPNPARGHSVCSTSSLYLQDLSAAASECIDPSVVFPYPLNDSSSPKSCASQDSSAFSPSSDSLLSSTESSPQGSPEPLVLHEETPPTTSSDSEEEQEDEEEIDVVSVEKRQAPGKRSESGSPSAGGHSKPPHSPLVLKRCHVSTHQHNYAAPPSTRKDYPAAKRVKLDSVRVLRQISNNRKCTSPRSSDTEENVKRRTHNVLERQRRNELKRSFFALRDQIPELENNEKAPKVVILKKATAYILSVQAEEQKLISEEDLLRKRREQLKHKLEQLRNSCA

| SMILES | Dmax at 2 µM (MycC Protein) [%] | Dmax at 2 µM (MycN Protein) [%] | % Degradation of MycC (MycC Protein) | % Degradation of MycN (MycN Protein) |
| --- | --- | --- | --- | --- |
| O=C(NC1CCN(Cc2ncccn2)CC1)N[C@H]1CC[C@H](Nc2nccc(Nc3cc(C4CCCC4)[nH]n3)n2)CC1 [Compound 75] | 20 to 49 | < 20 |  |  |
| Cc1cc(Nc2ccnc(N[C@H]3CC[C@H](NC(=O)NC4CCN(C(=O)C5CC5)CC4)CC3)n2)n[nH]1 [Compound 103, 1-(1-(cyclopropanecarbonyl)piperidin-4-yl)-3-((1R,4R)-4-((4-((5-methyl-1H-pyrazol-3-yl)amino)pyrimidin-2-yl)amino)cyclohexyl)urea] | < 20 | < 20 |  |  |
| CN(c1nccc(Nc2cc(C3CCCC3)[nH]n2)n1)C1CCC(NC(=O)N[C@H]2CCC[C@@H](C(F)(F)F)C2)CC1 (mixture of isomers) [Compound 121 (Racemic), 1-((1R,4S)-4-((4-((5-cyclopentyl-1H-pyrazol-3-yl)amino)pyrimidin-2-yl)(methyl)amino)cyclohexyl)-3-((1S,3R)-3-(trifluoromethyl)cyclohexyl)urea] |  |  | *** (***: degradation 50-79%) | *** (***: degradation 50-79%) |
| O=C(NC1CC2CCC(C1)N2C1CC1)N[C@H]1CC[C@H](Nc2nccc(Nc3cc(C4CCCC4)[nH]n3)n2)CC1 (stereo partly drawn) [Compound 61, 1-((1R,4R)-4-((4-((5-cyclopentyl-1H-pyrazol-3-yl)amino)pyrimidin-2-yl)amino)cyclohexyl)-3-(8-cyclopropyl-8-azabicyclo[3.2.1]octan-3-yl)urea] |  | < 20 |  |  |
| CN(C(=O)NC1Cc2ccc(C#N)cc2C1)[C@H]1CC[C@H](N(C)c2nccc(Nc3cc(C4CCCC4)[nH]n3)n2)CC1 (stereo partly drawn) [Compound 143, 3-(5-cyano-2,3-dihydro-1H-inden-2-yl)-1-((1R,4R)-4-((4-((5-cyclopentyl-1H-pyrazol-3-yl)amino)pyrimidin-2-yl)(methyl)amino)cyclohexyl)-1-methylurea] | 50 to 79 | 50 to 79 |  |  |
| CO[C@H]1c2ccccc2C[C@H]1NC(=O)N[C@H]1CC[C@H](Nc2nccc(Nc3cc(C)[nH]n3)n2)CC1 [Compound 105, 1-((1S,2R)-1-methoxy-2,3-dihydro-1H-inden-2-yl)-3-((1R,4R)-4-((4-((5-methyl-1H-pyrazol-3-yl)amino)pyrimidin-2-yl)amino)cyclohexyl)urea] | < 20 | < 20 |  |  |
| O=C(NC1CCC(N2CCOC2=O)CC1)N[C@H]1CC[C@H](Nc2nccc(Nc3cc(C4CCCC4)[nH]n3)n2)CC1 (stereo partly drawn) [Compound 37, 1-((1R,4R)-4-((4-((5-cyclopentyl-1H-pyrazol-3-yl)amino)pyrimidin-2-yl)amino)cyclohexyl)-3-(4-(2-oxooxazolidin-3-yl)cyclohexyl)urea] | < 20 | < 20 |  |  |
| FC(F)(F)C/N=C(\NC1CCOCC1)N[C@H]1CC[C@H](Nc2nccc(Nc3cc(C4CCCC4)[nH]n3)n2)CC1 [Compound 84] | < 20 | < 20 |  |  |
| O=C(NC1CCC(Nc2nccc(Nc3cc(C4CCCC4)[nH]n3)n2)CC1)NC1CCN(C2CC2)C1 [Compound 79, 1-((1R,4R)-4-((4-((5-cyclopentyl-1H-pyrazol-3-yl)amino)pyrimidin-2-yl)amino)cyclohexyl)-3-(1-cyclopropylpyrrolidin-3-yl)urea] | 20 to 49 | < 20 |  |  |
| O=C(NC1CCN(C2COC2)CC1)N[C@H]1CC[C@H](Nc2nccc(Nc3cc(C4CCCC4)[nH]n3)n2)CC1 [Compound 12, 1-((1R,4R)-4-((4-((5-cyclopentyl-1H-pyrazol-3-yl)amino)pyrimidin-2-yl)amino)cyclohexyl)-3-(1-(oxetan-3-yl)piperidin-4-yl)urea] | < 20 | < 20 |  |  |
| COCCNC(=O)NC1CCC(Nc2nccc(Nc3cc(C4CCCC4)[nH]n3)n2)CC1 [Compound 43, 1-((1R,4R)-4-((4-((5-cyclopentyl-1H-pyrazol-3-yl)amino)pyrimidin-2-yl)amino)cyclohexyl)-3-(2-methoxyethyl)urea] | 20 to 49 | 20 to 49 |  |  |
| N#Cc1ccc2c(c1)CC(NC(=O)N[C@H]1CC[C@H](Nc3nccc(Nc4cc(C5CC5)[nH]n4)n3)CC1)C2 (stereo partly drawn) [Compound 21, 1-(5-cyano-2,3-dihydro-1H-inden-2-yl)-3-((1R,4R)-4-((4-((5-cyclopropyl-1H-pyrazol-3-yl)amino)pyrimidin-2-yl)amino)cyclohexyl)urea] | < 20 | 20 to 49 |  |  |
| CN(c1nccc(Nc2cc(C3CC4(CC4)C3)[nH]n2)n1)[C@H]1CC[C@H](NC(=O)NC2Cc3ccc(C#N)cc3C2)CC1 (stereo partly drawn) [Compound 148, 1-(5-cyano-2,3-dihydro-1H-inden-2-yl)-3-((1R,4R)-4-(methyl(4-((5-(spiro[2.3]hexan-5-yl)-1H-pyrazol-3-yl)amino)pyrimidin-2-yl)amino)cyclohexyl)urea] | 50 to 79 | 80 to 100 |  |  |
| CN(c1nccc(Nc2cc(C3CC3)[nH]n2)n1)[C@H]1CC[C@H](NC(=O)NC2Cc3cc(F)c(F)cc3C2)CC1 [Compound 151, 1-((1R,4R)-4-((4-((5-cyclopropyl-1H-pyrazol-3-yl)amino)pyrimidin-2-yl)(methyl)amino)cyclohexyl)-3-(5,6-difluoro-2,3-dihydro-1H-inden-2-yl)urea] |  | 50 to 79 |  |  |
| O=C(Nc1cccc(C(F)(F)F)c1)N[C@@H]1CC[C@@H](Nc2nccc(Nc3cc(C4CCCC4)[nH]n3)n2)C1 [Compound 82] |  | 20 to 49 |  |  |
| O=C(NC1Cc2ccc(C3=NCC(O)CN3)cc2C1)N[C@H]1CC[C@H](Nc2nccc(Nc3cc(C4CCCC4)[nH]n3)n2)CC1 (stereo partly shown) [Compound 100] |  | < 20 |  |  |
| O=C(NC12CCN(CC1)CC2)N[C@H]1CC[C@H](Nc2nccc(Nc3cc(C4CCCC4)[nH]n3)n2)CC1 [Compound 68] |  | 20 to 49 |  |  |
| CN1CCC(NC(=O)N[C@H]2CC[C@H](Nc3nccc(Nc4cc(C5CCCC5)[nH]n4)n3)CC2)CC1 [Compound 97, 1-((1R,4R)-4-((4-((5-cyclopentyl-1H-pyrazol-3-yl)amino)pyrimidin-2-yl)amino)cyclohexyl)-3-(1-methylpiperidin-4-yl)urea] |  | 20 to 49 |  |  |
| CN(c1nccc(Nc2cc(C3CCCC3)[nH]n2)n1)[C@H]1CC[C@H](NC(=O)Nc2cccc(C(F)(F)F)c2)CC1 [Compound 146, 1-((1R,4R)-4-((4-((5-cyclopentyl-1H-pyrazol-3-yl)amino)pyrimidin-2-yl)(methyl)amino)cyclohexyl)-3-(3-(trifluoromethyl)phenyl)urea] |  | 50 to 79 |  |  |
| CN(c1nccc(Nc2cc(C3CC3)[nH]n2)n1)[C@H]1CC[C@H](NC(=O)Nc2cccc(C(F)(F)F)c2)CC1 [Compound 147, 1-((1R,4R)-4-((4-((5-cyclopropyl-1H-pyrazol-3-yl)amino)pyrimidin-2-yl)(methyl)amino)cyclohexyl)-3-(3-(trifluoromethyl)phenyl)urea] |  | 80 to 100 |  |  |
| N=C(NC1COC1)c1ccc2c(c1)CC(NC(=O)N[C@H]1CC[C@H](Nc3nccc(Nc4cc(C5CCCC5)[nH]n4)n3)CC1)C2 (stereo partly shown) [Compound 99] |  | < 20 |  |  |
| CN(C)C(=N)c1ccc2c(c1)CC(NC(=O)N[C@H]1CC[C@H](Nc3nccc(Nc4cc(C5CCCC5)[nH]n4)n3)CC1)C2 (stereo partly shown) [Compound 98] |  | < 20 |  |  |
